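Five compound concentrations were applied to cells in 96-well plates for 48 hours; endpoints were derived by simple linear interpolation of the resulting dose-response curve. GI50 is the concentration that inhibits growth by half. TGI denotes the concentration required for complete inhibition of growth.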
Tests used:
Experiment in all cases: inhibition of tumour cell growth, NCI panel, 48 h
786-0 renal = system: 786-0 renal
A549 NSCLC = system: A549 NSCLC
ACHN renal = system: ACHN renal
BT-549 breast = system: BT-549 breast
CAKI-1 renal = system: CAKI-1 renal
CCRF-CEM leukemia = system: CCRF-CEM leukemia
COLO 205 colon = system: COLO 205 colon
DU-145 prostate = system: DU-145 prostate
EKVX NSCLC = system: EKVX NSCLC
HCC-2998 colon = system: HCC-2998 colon
HCT-15 colon = system: HCT-15 colon
HL-60(TB) leukemia = system: HL-60(TB) leukemia
HOP-62 NSCLC = system: HOP-62 NSCLC
HOP-92 NSCLC = system: HOP-92 NSCLC
HT29 colon = system: HT29 colon
K-562 leukemia = system: K-562 leukemia
KM12 colon = system: KM12 colon
LOX IMVI melanoma = system: LOX IMVI melanoma
M14 melanoma = system: M14 melanoma
MDA-MB-231 breast = system: MDA-MB-231 breast
MDA-MB-435 = system: MDA-MB-435
MOLT-4 leukemia = system: MOLT-4 leukemia
NCI-H226 lung = system: NCI-H226 lung
NCI-H23 lung = system: NCI-H23 lung
NCI-H460 lung = system: NCI-H460 lung
NCI-H522 lung = system: NCI-H522 lung
NCI/ADR-RES ovarian = system: NCI/ADR-RES ovarian
OVCAR-3 ovarian = system: OVCAR-3 ovarian
OVCAR-4 ovarian = system: OVCAR-4 ovarian
OVCAR-5 ovarian = system: OVCAR-5 ovarian
OVCAR-8 ovarian = system: OVCAR-8 ovarian
PC-3 prostate = system: PC-3 prostate
RPMI-8226 leukemia = system: RPMI-8226 leukemia
RXF 393 renal = system: RXF 393 renal
SF-268 CNS = system: SF-268 CNS
SF-295 CNS = system: SF-295 CNS
SF-539 CNS = system: SF-539 CNS
SK-MEL-2 melanoma = system: SK-MEL-2 melanoma
SK-MEL-28 melanoma = system: SK-MEL-28 melanoma
SK-MEL-5 melanoma = system: SK-MEL-5 melanoma
SK-OV-3 ovarian = system: SK-OV-3 ovarian
SN12C renal = system: SN12C renal
SNB-19 CNS = system: SNB-19 CNS
SNB-75 CNS = system: SNB-75 CNS
SR leukemia = system: SR leukemia
SW-620 colon = system: SW-620 colon
T-47D breast = system: T-47D breast
TK-10 renal = system: TK-10 renal
U251 CNS = system: U251 CNS
UACC-257 melanoma = system: UACC-257 melanoma
UACC-62 melanoma = system: UACC-62 melanoma
UO-31 renal = system: UO-31 renal
A498 renal = system: A498 renal
HS 578T breast = system: HS 578T breast
IGROV1 ovarian = system: IGROV1 ovarian
MALME-3M melanoma = system: MALME-3M melanoma
MCF7 breast = system: MCF7 breast
HCT-116 colon = system: HCT-116 colon

## S=c1ssc(Oc2ccccc2)c1Cl
786-0 renal
  GI50: 6.63 µM
  TGI: 20.7 µM
A549 NSCLC
  GI50: 33.9 µM
  TGI: > 100 µM
ACHN renal
  GI50: 4.5 µM
  TGI: 16.1 µM
BT-549 breast
  GI50: 12.7 µM
  TGI: 31.7 µM
CAKI-1 renal
  GI50: 16 µM
  TGI: 29.5 µM
CCRF-CEM leukemia
  GI50: 1.02 µM
  TGI: 5.84 µM
COLO 205 colon
  GI50: 23 µM
  TGI: 47.5 µM
DU-145 prostate
  GI50: 14.5 µM
  TGI: 28.9 µM
EKVX NSCLC
  GI50: 18.4 µM
  TGI: 38.9 µM
HCC-2998 colon
  GI50: 3.7 µM
  TGI: 14.7 µM
HCT-15 colon
  GI50: 7.76 µM
  TGI: 22.6 µM
HL-60(TB) leukemia
  GI50: 3.21 µM
  TGI: > 100 µM
HOP-62 NSCLC
  GI50: 37 µM
  TGI: > 100 µM
HOP-92 NSCLC
  GI50: 14.8 µM
  TGI: 36.2 µM
HT29 colon
  GI50: 1.37 µM
  TGI: > 100 µM
K-562 leukemia
  GI50: 2.68 µM
  TGI: > 100 µM
KM12 colon
  GI50: 13.2 µM
  TGI: 26 µM
LOX IMVI melanoma
  GI50: 5.61 µM
  TGI: 22.7 µM
M14 melanoma
  GI50: 18 µM
  TGI: 43.2 µM
MDA-MB-231 breast
  GI50: 14.2 µM
  TGI: 29.6 µM
MDA-MB-435
  GI50: 14.2 µM
  TGI: 27.2 µM
MOLT-4 leukemia
  GI50: 0.73 µM
  TGI: > 100 µM
NCI-H226 lung
  GI50: 27 µM
  TGI: 73.8 µM
NCI-H23 lung
  GI50: 12.6 µM
  TGI: 50.9 µM
NCI-H460 lung
  GI50: 16.9 µM
  TGI: 33.1 µM
NCI-H522 lung
  GI50: 23.2 µM
  TGI: 42.5 µM
NCI/ADR-RES ovarian
  GI50: 16.4 µM
  TGI: 35.4 µM
OVCAR-3 ovarian
  GI50: 7.74 µM
  TGI: 20.4 µM
OVCAR-4 ovarian
  GI50: 34 µM
  TGI: > 100 µM
OVCAR-5 ovarian
  GI50: 23.2 µM
  TGI: 49.9 µM
OVCAR-8 ovarian
  GI50: 29.5 µM
  TGI: 62.4 µM
PC-3 prostate
  GI50: 10.2 µM
  TGI: 23.9 µM
RPMI-8226 leukemia
  GI50: 0.95 µM
  TGI: 7.7 µM
RXF 393 renal
  GI50: 12 µM
  TGI: 29.8 µM
SF-268 CNS
  GI50: 13.3 µM
  TGI: 26.1 µM
SF-295 CNS
  GI50: 15.1 µM
  TGI: 28.3 µM
SF-539 CNS
  GI50: 17.3 µM
  TGI: 33.8 µM
SK-MEL-2 melanoma
  GI50: 33.9 µM
  TGI: 83.3 µM
SK-MEL-28 melanoma
  GI50: 11.9 µM
  TGI: 32 µM
SK-MEL-5 melanoma
  GI50: 17.3 µM
  TGI: 35.1 µM
SK-OV-3 ovarian
  GI50: 39.4 µM
  TGI: > 100 µM
SN12C renal
  GI50: 11.7 µM
  TGI: 28.2 µM
SNB-19 CNS
  GI50: 31.6 µM
  TGI: 79.6 µM
SNB-75 CNS
  GI50: 18 µM
  TGI: 45 µM
SR leukemia
  GI50: 0.605 µM
  TGI: > 100 µM
SW-620 colon
  GI50: 1.9 µM
  TGI: 5.24 µM
T-47D breast
  GI50: 21.5 µM
  TGI: 43 µM
TK-10 renal
  GI50: 3 µM
  TGI: 9.68 µM
U251 CNS
  GI50: 7.06 µM
  TGI: 26.4 µM
UACC-257 melanoma
  GI50: 17.6 µM
  TGI: 35.5 µM
UACC-62 melanoma
  GI50: 14 µM
  TGI: 26.9 µM
UO-31 renal
  GI50: 19 µM
  TGI: 58.8 µM

## CC[C@@]1(OC(=O)CN)C(=O)OCc2c1cc1n(c2=O)Cc2cc3c(N)cccc3nc2-1
786-0 renal
  GI50: < 0.01 µM
  TGI: 0.203 µM
A498 renal
  GI50: < 0.016 µM
  TGI: 0.156 µM
A549 NSCLC
  GI50: < 0.0129 µM
  TGI: 1.77 µM
ACHN renal
  GI50: < 0.01 µM
  TGI: 0.0287 µM
BT-549 breast
  GI50: 0.0372 µM
  TGI: 1.63 µM
CAKI-1 renal
  GI50: < 0.01 µM
  TGI: 0.582 µM
CCRF-CEM leukemia
  GI50: < 0.01 µM
  TGI: > 100 µM
COLO 205 colon
  GI50: 0.392 µM
  TGI: 2.66 µM
EKVX NSCLC
  GI50: 0.265 µM
  TGI: > 100 µM
HCC-2998 colon
  GI50: 0.084 µM
  TGI: 0.782 µM
HCT-15 colon
  GI50: 0.249 µM
  TGI: > 100 µM
HL-60(TB) leukemia
  GI50: < 0.01 µM
HOP-62 NSCLC
  GI50: < 0.01 µM
HOP-92 NSCLC
  GI50: 0.0371 µM
  TGI: > 100 µM
HS 578T breast
  GI50: > 100 µM
  TGI: > 100 µM
HT29 colon
  GI50: 0.0346 µM
  TGI: > 100 µM
IGROV1 ovarian
  GI50: 0.115 µM
K-562 leukemia
  GI50: < 0.0367 µM
KM12 colon
  GI50: 0.158 µM
  TGI: 1.92 µM
LOX IMVI melanoma
  GI50: < 0.01 µM
  TGI: 0.0486 µM
MALME-3M melanoma
  GI50: 0.0473 µM
  TGI: 1.75 µM
MCF7 breast
  GI50: < 0.01 µM
  TGI: > 100 µM
MDA-MB-231 breast
  GI50: 1.43 µM
  TGI: > 21.5 µM
MDA-MB-435
  GI50: 0.0476 µM
  TGI: 0.336 µM
MOLT-4 leukemia
  GI50: < 0.01 µM
  TGI: 27.7 µM
NCI-H226 lung
  GI50: 0.0216 µM
  TGI: 0.498 µM
NCI-H23 lung
  GI50: < 0.01 µM
  TGI: 0.0765 µM
NCI-H460 lung
  GI50: < 0.01 µM
  TGI: 0.114 µM
NCI-H522 lung
  GI50: < 0.01 µM
  TGI: 1.31 µM
NCI/ADR-RES ovarian
  GI50: < 0.01 µM
  TGI: 0.258 µM
OVCAR-3 ovarian
  GI50: 0.0749 µM
  TGI: 3.77 µM
OVCAR-4 ovarian
  GI50: 0.211 µM
  TGI: 3.32 µM
OVCAR-5 ovarian
  GI50: 0.045 µM
  TGI: 1.12 µM
OVCAR-8 ovarian
  GI50: < 0.01 µM
  TGI: 0.153 µM
PC-3 prostate
  GI50: 0.16 µM
  TGI: > 100 µM
RPMI-8226 leukemia
  GI50: 0.0474 µM
RXF 393 renal
  GI50: 0.0352 µM
  TGI: 0.476 µM
SF-268 CNS
  GI50: < 0.01 µM
  TGI: > 100 µM
SF-295 CNS
  GI50: < 0.01 µM
  TGI: 0.0497 µM
SF-539 CNS
  GI50: < 0.01 µM
  TGI: < 0.0153 µM
SK-MEL-2 melanoma
  GI50: 0.132 µM
  TGI: 0.49 µM
SK-MEL-28 melanoma
  GI50: 0.557 µM
  TGI: > 20.1 µM
SN12C renal
  GI50: < 0.01 µM
  TGI: 1.1 µM
SNB-19 CNS
  GI50: < 0.01 µM
  TGI: > 100 µM
SR leukemia
  GI50: < 0.01 µM
SW-620 colon
  GI50: 0.0247 µM
  TGI: 3.78 µM
T-47D breast
  GI50: < 0.01 µM
  TGI: > 100 µM
TK-10 renal
  GI50: 1.31 µM
  TGI: > 21.6 µM
U251 CNS
  GI50: < 0.01 µM
  TGI: 0.405 µM
UACC-257 melanoma
  GI50: 0.0774 µM
  TGI: 1.5 µM

## Cc1sc2nc(-c3ccc([N+](=O)[O-])cc3)c(/C=N/N=C(N)N)n2c1C
786-0 renal
  TGI: 0.637 µM
A549 NSCLC
  TGI: 2.88 µM
ACHN renal
  TGI: 2.61 µM
BT-549 breast
  TGI: 2.79 µM
COLO 205 colon
  TGI: 0.809 µM
DU-145 prostate
  TGI: 2.74 µM
EKVX NSCLC
  TGI: 2.41 µM
HCC-2998 colon
  TGI: 0.693 µM
HCT-116 colon
  TGI: 0.427 µM
HCT-15 colon
  TGI: 2.82 µM
HOP-62 NSCLC
  TGI: 2.12 µM
HOP-92 NSCLC
  TGI: 2.81 µM
HS 578T breast
  TGI: 3.49 µM
HT29 colon
  TGI: 1.63 µM
IGROV1 ovarian
  TGI: 2.71 µM
KM12 colon
  TGI: 1.03 µM
M14 melanoma
  TGI: 1.99 µM
MDA-MB-231 breast
  TGI: 1.17 µM
MDA-MB-435
  TGI: 2.25 µM
NCI-H23 lung
  TGI: 2.73 µM
NCI/ADR-RES ovarian
  TGI: 11 µM
OVCAR-5 ovarian
  TGI: 2.81 µM
OVCAR-8 ovarian
  TGI: 1.8 µM
PC-3 prostate
  TGI: 2.65 µM
SF-295 CNS
  TGI: 2.42 µM
SF-539 CNS
  TGI: 3.26 µM
SK-MEL-28 melanoma
  TGI: 1.37 µM
SK-OV-3 ovarian
  TGI: 3.12 µM
T-47D breast
  TGI: 3.1 µM
TK-10 renal
  TGI: 2.84 µM
U251 CNS
  TGI: 0.358 µM
UACC-257 melanoma
  TGI: 2.77 µM
UO-31 renal
  TGI: 2.98 µM

From PubChem BioAssay (NCI)
